From PubChem BioAssay AID2060908 (Molecular Pharmacology Branch, DTP, NCI, 2025)

System: 186277-243-T-J2-PDC complex spheroids, viability
Assay: Anticancer human tumor 186277-243-T-J2-PDC patient-derived colon adenocarcinoma cell line growth inhibition [RAS]
Conditions: for viability, T/C: stronger effect = lower value
How it was run: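 Tumour cells grown as complex spheroids with HUVEC endothelial cells and mesenchymal stem cells, treated with RAS pathway inhibitor combinations. Each agent spans half-log steps from near clinical Cmax, or 10 microM where Cmax is unknown.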

[1] = curve of first compound, second compound 0.0316 µM
[2] = curve of first compound, second compound 0.1 µM
[3] = curve of first compound, second compound 0.316 µM
[4] = curve of first compound, second compound 1 µM
[5] = second compound 0.0316 µM, first compound 0.0316 µM
[6] = second compound 0.0316 µM, first compound 0.1 µM
[7] = second compound 0.0316 µM, first compound 0.316 µM
[8] = second compound 0.0316 µM, first compound 1 µM
[9] = second compound 0.0316 µM, first compound 3.16 µM
[10] = second compound 0.0316 µM, first compound 10 µM
[11] = second compound 0.1 µM, first compound 0.0316 µM
[12] = second compound 0.1 µM, first compound 0.1 µM
[13] = second compound 0.1 µM, first compound 0.316 µM
[14] = second compound 0.1 µM, first compound 1 µM
[15] = second compound 0.1 µM, first compound 3.16 µM
[16] = second compound 0.1 µM, first compound 10 µM
[17] = second compound 0.316 µM, first compound 0.0316 µM
[18] = second compound 0.316 µM, first compound 0.1 µM
[19] = second compound 0.316 µM, first compound 0.316 µM
[20] = second compound 0.316 µM, first compound 1 µM
[21] = second compound 0.316 µM, first compound 3.16 µM
[22] = second compound 0.316 µM, first compound 10 µM
[23] = second compound 1 µM, first compound 0.0316 µM
[24] = second compound 1 µM, first compound 0.1 µM
[25] = second compound 1 µM, first compound 0.316 µM
[26] = second compound 1 µM, first compound 1 µM
[27] = second compound 1 µM, first compound 3.16 µM
[28] = second compound 1 µM, first compound 10 µM
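Also: spheroids exposed to compounds for 7 days before viability read.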

For `CC1(C)CCC(Nc2ncc(C(F)(F)F)c(-c3c[nH]c4c(P(C)(C)=O)c(C#N)ccc34)n2)CN1` (centres undefined) + CCn1c(-c2cc(N3CCN(C)CC3)cnc2C(C)OC)c2c3cc(ccc31)-c1csc(n1)CC(NC(=O)C1CC1C)C(=O)N1CCCC(N1)C(=O)OCC(C)(C)C2, the IC50 (curve of first compound, second compound 0.000949 µM) was 0.0953 µM, the IC50 (curve of first compound, second compound 0.003 µM) was 0.0443 µM and the IC50 (curve of first compound, second compound 0.00949 µM) was under 0.000949 µM. For the same compound, the IC50 (curve of first compound, second compound 0.03 µM) was under 0.000949 µM, the IC50 (curve of first compound, second compound 0.0949 µM) was under 0.000949 µM and the IC50 (curve of first compound, second compound 0.3 µM) was under 0.000949 µM. The viability, T/C (second compound 0.000949 µM, first compound 0.000949 µM) was 103%, the viability, T/C (second compound 0.000949 µM, first compound 0.003 µM) was 104% and the viability, T/C (second compound 0.000949 µM, first compound 0.00949 µM) was 88%. For the same compound, the viability, T/C (second compound 0.000949 µM, first compound 0.03 µM) was 68.5%, the viability, T/C (second compound 0.000949 µM, first compound 0.0949 µM) was 49.8% and the viability, T/C (second compound 0.000949 µM, first compound 0.3 µM) was 43.3%. For the same compound, the viability, T/C (second compound 0.003 µM, first compound 0.000949 µM) was 96.8%, the viability, T/C (second compound 0.003 µM, first compound 0.003 µM) was 80.2% and the viability, T/C (second compound 0.003 µM, first compound 0.00949 µM) was 82.1%. It also gave a viability, T/C (second compound 0.003 µM, first compound 0.03 µM) of 55.1%, a viability, T/C (second compound 0.003 µM, first compound 0.0949 µM) of 37.4% and a viability, T/C (second compound 0.003 µM, first compound 0.3 µM) of 31.4%. For the same compound, the viability, T/C (second compound 0.00949 µM, first compound 0.000949 µM) was 48.1%, the viability, T/C (second compound 0.00949 µM, first compound 0.003 µM) was 42.9% and the viability, T/C (second compound 0.00949 µM, first compound 0.00949 µM) was 31.9%. For the same compound, the viability, T/C (second compound 0.00949 µM, first compound 0.03 µM) was 22.6%, the viability, T/C (second compound 0.00949 µM, first compound 0.0949 µM) was 18.2% and the viability, T/C (second compound 0.00949 µM, first compound 0.3 µM) was 18.2%. The viability, T/C (second compound 0.03 µM, first compound 0.000949 µM) was 14.1%, the viability, T/C (second compound 0.03 µM, first compound 0.003 µM) was 14% and the viability, T/C (second compound 0.03 µM, first compound 0.00949 µM) was 10.6%. The viability, T/C (second compound 0.03 µM, first compound 0.03 µM) was 9.74%, the viability, T/C (second compound 0.03 µM, first compound 0.0949 µM) was 10.6% and the viability, T/C (second compound 0.03 µM, first compound 0.3 µM) was 8.92%. The viability, T/C (second compound 0.0949 µM, first compound 0.000949 µM) was 7.13%, the viability, T/C (second compound 0.0949 µM, first compound 0.003 µM) was 6.88% and the viability, T/C (second compound 0.0949 µM, first compound 0.00949 µM) was 5.95%. The viability, T/C (second compound 0.0949 µM, first compound 0.03 µM) was 5.82%, the viability, T/C (second compound 0.0949 µM, first compound 0.0949 µM) was 6.47% and the viability, T/C (second compound 0.0949 µM, first compound 0.3 µM) was 5.47%. For the same compound, the viability, T/C (second compound 0.3 µM, first compound 0.000949 µM) was 5.71%, the viability, T/C (second compound 0.3 µM, first compound 0.003 µM) was 5.48% and the viability, T/C (second compound 0.3 µM, first compound 0.00949 µM) was 4.65%. It also gave a viability, T/C (second compound 0.3 µM, first compound 0.03 µM) of 4.88%, a viability, T/C (second compound 0.3 µM, first compound 0.0949 µM) of 4.85% and a viability, T/C (second compound 0.3 µM, first compound 0.3 µM) of 4.54%.

`C=CC(=O)N1CCN(c2nc(OCC3CCCN3C)nc3c(F)c(-c4nc(N)cc(C)c4C(F)(F)F)c(Cl)cc23)C(C)C1` (centres undefined) was tested, and the viability, T/C (compound 0.0316 µM) was 100% [middle of 12 runs], the IC50 (compound alone, run of 06/10/2024) was over 1 µM and the IC50 (curve of compound) was over 1 µM.

`Cc1nc(N2CCC3(CC2)COC(C)C3N)c(CO)nc1Sc1ccnc(N)c1Cl` (centres undefined) + C#Cc1c(F)ccc2cc(O)cc(-c3ncc4c(N5CC6CCC(C5)N6)nc(OCC56CCCN5CC(F)C6)nc4c3F)c12 showed an IC50 [1] of 0.114 µM, an IC50 [2] of under 0.0316 µM and an IC50 [3] of under 0.0316 µM. The IC50 [4] was under 0.0316 µM, the IC50 (curve of first compound, second compound 3.16 µM) was under 0.0316 µM and the IC50 (curve of first compound, second compound 10 µM) was under 0.0316 µM. The viability, T/C [5] was 60.5%, the viability, T/C [6] was 53.8% and the viability, T/C [7] was 23.1%. The viability, T/C [8] was 9.38%, the viability, T/C [9] was 7.2% and the viability, T/C [10] was 5.04%. It also gave a viability, T/C [11] of 43.9%, a viability, T/C [12] of 24.9% and a viability, T/C [13] of 9.87%. It also gave a viability, T/C [14] of 9.03%, a viability, T/C [15] of 6.97% and a viability, T/C [16] of 6.34%. For the same compound, the viability, T/C [17] was 14.7%, the viability, T/C [18] was 13.1% and the viability, T/C [19] was 9.91%. For the same compound, the viability, T/C [20] was 8%, the viability, T/C [21] was 6.18% and the viability, T/C [22] was 5.92%. It also gave a viability, T/C [23] of 12.2%, a viability, T/C [24] of 10.3% and a viability, T/C [25] of 8.18%. It also gave a viability, T/C [26] of 5.06%, a viability, T/C [27] of 6.45% and a viability, T/C [28] of 4.66%. For the same compound, the viability, T/C (second compound 3.16 µM, first compound 0.0316 µM) was 8.78%, the viability, T/C (second compound 3.16 µM, first compound 0.1 µM) was 9.76% and the viability, T/C (second compound 3.16 µM, first compound 0.316 µM) was 7.42%. The viability, T/C (second compound 3.16 µM, first compound 1 µM) was 6.36%, the viability, T/C (second compound 3.16 µM, first compound 3.16 µM) was 5.23% and the viability, T/C (second compound 3.16 µM, first compound 10 µM) was 4.36%. The viability, T/C (second compound 10 µM, first compound 0.0316 µM) was 7.27%, the viability, T/C (second compound 10 µM, first compound 0.1 µM) was 4.82% and the viability, T/C (second compound 10 µM, first compound 0.316 µM) was 6.12%. It also gave a viability, T/C (second compound 10 µM, first compound 1 µM) of 4.54%, a viability, T/C (second compound 10 µM, first compound 3.16 µM) of 4.2% and a viability, T/C (second compound 10 µM, first compound 10 µM) of 1.83%.

Work on `CC(C)NCC(C(=O)N1CCN(c2ncnc3c2C(C)CC3O)CC1)c1ccc(Cl)cc1` (centres undefined) + C=CC(=O)N1CCN(c2nc(OCC3CCCN3C)nc3c(F)c(-c4nc(N)cc(C)c4C(F)(F)F)c(Cl)cc23)C(C)C1 yielded an IC50 (curve of first compound, second compound 0.00316 µM) of 1.68 µM, an IC50 (curve of first compound, second compound 0.01 µM) of 3.22 µM and an IC50 [1] of 2.7 µM. For the same compound, the IC50 [2] was 2.04 µM, the IC50 [3] was 2.53 µM and the IC50 [4] was 1.91 µM. It also gave a viability, T/C (second compound 0.00316 µM, first compound 0.0316 µM) of 94.2%, a viability, T/C (second compound 0.00316 µM, first compound 0.1 µM) of 87% and a viability, T/C (second compound 0.00316 µM, first compound 0.316 µM) of 113%. For the same compound, the viability, T/C (second compound 0.00316 µM, first compound 1 µM) was 59.2%, the viability, T/C (second compound 0.00316 µM, first compound 3.16 µM) was 43.6% and the viability, T/C (second compound 0.00316 µM, first compound 10 µM) was 34%. For the same compound, the viability, T/C (second compound 0.01 µM, first compound 0.0316 µM) was 78.7%, the viability, T/C (second compound 0.01 µM, first compound 0.1 µM) was 100% and the viability, T/C (second compound 0.01 µM, first compound 0.316 µM) was 101%. The viability, T/C (second compound 0.01 µM, first compound 1 µM) was 79.4%, the viability, T/C (second compound 0.01 µM, first compound 3.16 µM) was 51.4% and the viability, T/C (second compound 0.01 µM, first compound 10 µM) was 33.6%. For the same compound, the viability, T/C [5] was 72.3%, the viability, T/C [6] was 110% and the viability, T/C [7] was 77.1%. For the same compound, the viability, T/C [8] was 87.1%, the viability, T/C [9] was 44.1% and the viability, T/C [10] was 35.2%. It also gave a viability, T/C [11] of 93.2%, a viability, T/C [12] of 85.8% and a viability, T/C [13] of 103%. The viability, T/C [14] was 63.4%, the viability, T/C [15] was 47.6% and the viability, T/C [16] was 35.8%. The viability, T/C [17] was 91.4%, the viability, T/C [18] was 96.3% and the viability, T/C [19] was 89.1%. It also gave a viability, T/C [20] of 62.8%, a viability, T/C [21] of 49.9% and a viability, T/C [22] of 29.5%. The viability, T/C [23] was 107%, the viability, T/C [24] was 97.7% and the viability, T/C [25] was 87.5%. For the same compound, the viability, T/C [26] was 63.7%, the viability, T/C [27] was 38.9% and the viability, T/C [28] was 25.2%.
